Key:
Assay in all cases: Cysteine liganding, probe competition
Format in all cases: binding
[1] = target: T1, GOLGA2 Golgin subfamily A member 2 (Homo sapiens, UniProt Q08379)
T1 construct: Cells were resuspended in cold PBS on ice and sonicated with a probe sonicator to achieve lysis; endogenous in cells
T1 sequence (Q08379 1-1002): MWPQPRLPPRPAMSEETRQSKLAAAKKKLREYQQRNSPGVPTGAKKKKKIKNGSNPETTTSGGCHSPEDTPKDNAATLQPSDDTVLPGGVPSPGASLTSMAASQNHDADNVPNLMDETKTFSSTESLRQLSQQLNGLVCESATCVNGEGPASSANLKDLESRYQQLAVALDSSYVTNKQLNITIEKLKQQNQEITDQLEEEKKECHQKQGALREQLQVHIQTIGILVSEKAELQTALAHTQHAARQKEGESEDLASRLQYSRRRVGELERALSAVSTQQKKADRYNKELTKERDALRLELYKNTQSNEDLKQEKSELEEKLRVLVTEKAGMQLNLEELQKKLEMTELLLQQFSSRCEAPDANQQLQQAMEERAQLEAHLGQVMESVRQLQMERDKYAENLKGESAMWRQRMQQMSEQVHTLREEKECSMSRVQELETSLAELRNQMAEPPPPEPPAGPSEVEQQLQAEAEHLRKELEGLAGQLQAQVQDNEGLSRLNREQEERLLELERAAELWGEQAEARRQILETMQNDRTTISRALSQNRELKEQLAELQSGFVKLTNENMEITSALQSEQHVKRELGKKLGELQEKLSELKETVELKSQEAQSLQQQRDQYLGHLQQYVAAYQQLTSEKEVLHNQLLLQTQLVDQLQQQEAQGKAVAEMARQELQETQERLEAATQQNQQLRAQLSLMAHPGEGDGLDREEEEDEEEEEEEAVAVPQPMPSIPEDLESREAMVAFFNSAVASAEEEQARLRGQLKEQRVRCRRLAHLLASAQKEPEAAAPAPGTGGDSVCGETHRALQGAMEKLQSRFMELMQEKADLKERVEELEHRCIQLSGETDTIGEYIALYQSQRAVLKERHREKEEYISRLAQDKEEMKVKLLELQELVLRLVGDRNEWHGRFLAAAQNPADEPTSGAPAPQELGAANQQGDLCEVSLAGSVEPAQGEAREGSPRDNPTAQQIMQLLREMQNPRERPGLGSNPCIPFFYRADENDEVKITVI
How it was run: (§1)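 Lysates from probe-sonicated cells in PBS (5 mg/ml proteome) were exposed to compound for 1 hr at 25° C, then labelled with desthiobiotin iodoacetamide probe (10 mM stock) for 1 hr at 25° C. Probe-tagged peptides were streptavidin-enriched after trypsin digestion.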

[2] = target: T2, RING1 E3 ubiquitin-protein ligase RING1 (Homo sapiens, UniProt Q06587)
T2 construct: Cells were resuspended in cold PBS on ice and sonicated with a probe sonicator to achieve lysis; endogenous in cells
T2 sequence (Q06587 1-406): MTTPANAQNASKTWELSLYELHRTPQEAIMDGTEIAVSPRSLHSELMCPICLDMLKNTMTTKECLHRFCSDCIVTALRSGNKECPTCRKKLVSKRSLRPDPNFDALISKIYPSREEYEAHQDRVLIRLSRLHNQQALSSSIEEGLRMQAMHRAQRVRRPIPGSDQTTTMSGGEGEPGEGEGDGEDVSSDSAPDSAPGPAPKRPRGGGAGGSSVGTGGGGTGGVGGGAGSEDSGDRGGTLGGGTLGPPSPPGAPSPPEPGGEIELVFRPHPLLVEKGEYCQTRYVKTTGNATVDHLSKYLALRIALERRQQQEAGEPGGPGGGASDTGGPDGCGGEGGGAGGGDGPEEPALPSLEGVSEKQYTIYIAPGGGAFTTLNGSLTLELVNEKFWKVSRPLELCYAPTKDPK
How it was run: as §1

[3] = target: T3, CKB Creatine kinase B-type (Homo sapiens, UniProt P12277)
T3 construct: 200 μL of lysate containing 5 mg/ml proteome was treated with 2 μL of 100× compound stock; endogenous in cells
T3 sequence (P12277 whole entry): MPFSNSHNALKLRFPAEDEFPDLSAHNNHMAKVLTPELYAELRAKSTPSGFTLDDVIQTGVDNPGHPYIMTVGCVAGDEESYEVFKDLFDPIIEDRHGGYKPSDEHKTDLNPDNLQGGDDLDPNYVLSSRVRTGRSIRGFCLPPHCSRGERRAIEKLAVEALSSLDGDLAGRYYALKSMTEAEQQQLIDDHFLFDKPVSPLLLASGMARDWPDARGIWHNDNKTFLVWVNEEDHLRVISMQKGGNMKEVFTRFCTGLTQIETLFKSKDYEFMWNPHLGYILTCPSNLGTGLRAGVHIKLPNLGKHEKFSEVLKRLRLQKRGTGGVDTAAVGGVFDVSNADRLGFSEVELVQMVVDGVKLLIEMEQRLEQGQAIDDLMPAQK
How it was run: as §1

Structure (SMILES): COc1ccc2c(c1)CCCN2C(=O)CCl [KB02]
- Liganded ([1]; GOLGA2 Res# 794, uniprot Q08379): YES
- Liganded ([2]; RING1 Res# 72, uniprot Q06587): YES
- Liganded ([3]; CKB Res# 283, uniprot P12277): YES

Structure (SMILES): O=C(CCl)Nc1cc(C(F)(F)F)cc(C(F)(F)F)c1 [KBO3]
- 100 Max ([1]; uniprot Q08379): 1.85
- 100 ave ([1]; uniprot Q08379): 1.85
- 500 Max ([1]; uniprot Q08379): 54.38
- 500 ave ([1]; uniprot Q08379): 54.38
- Liganded ([2]; RING1 Res# 51, uniprot Q06587): YES
- Liganded ([2]; RING1 Res# 72, uniprot Q06587): YES
- 100 Max ([2]; uniprot Q06587): 18.1
- 100 ave ([2]; uniprot Q06587): 0.5
- 100 Max ([3]; uniprot P12277): 23.24
- 100 ave ([3]; uniprot P12277): 15.155
- 500 ave ([3]; uniprot P12277): 71.73
- 500 Max ([3]; uniprot P12277, in % (unit assumed)): 71.73

Reference: patent publication US20200239530A1, “COMPOUNDS AND METHODS OF MODULATING PROTEIN DEGRADATION” (Vividion Therapeutics, Inc., priority 2017, published 2020)
